Measurements as given in paper PMC9170106, “Pre-clinical evaluation of LASSBio-1491: From in vitro pharmacokinetic study to in vivo leishmanicidal activity” (PLoS ONE, 2022).

What was measured:
Microsomal metabolism [1] = assay type: in vitro ADME; conditions: rat liver microsomes
Procedure: The study of the microsomal metabolism of the compounds was evaluated by placing 1 mg/ml rat liver microsome in a microcentrifuge tube, in the presence of a NADPH generator system (1 mM NADP^+, 1.5 mM MgCl2, 3.5 mM glucose-6-phosphate and 0.5 U/mL glucose-6-phosphate dehydrogenase) and phosphate buffer pH 7.4 in sufficient quantity for 250 μL. After 15 minutes of pre-incubation at 37°C in a water bath, the enzymatic reactions were started by adding 2 μL of a stock solution 1 mM from one of the prototypes (500 μL 20% DMSO 80% CH3CN), so that a final concentration of 5 μM was reached (0.2% DMSO, 0.8% acetonitrile).
Then, the samples were again incubated at 37°C under agitation for predetermined and fixed periods (0, 15, 30, 45 and 60 minutes). At the end of the incubation period 500 μL of cold methanol and 500 μL of cold acetonitrile containing 5 μM of methyl 1,1’biphenyl-4-carboxylate 5 μM (internal standard) were added to the wells to stop the reaction and the samples were homogenized and kept in an ice bath to accelerate protein precipitation. The mixture was centrifuged at 24500 x g for 15 minutes at 4°C (Universal centrifuge 320R Hettich®). Finally, the supernatant (1 mL) was filtrated and placed in vials to be analyzed by HPLC-PDA, Shimadzu—LC20AD, Kromasil C-18 column (4.6 mm x 250 mm, 5 μm), SPD M20A diode array detector, flow 1 mL/min, mobile phase acetonitrile: water 1:1 (v/v) for LASSBio-1491 and acetonitrile: water 60:40 (v/v) for LASSBio-1736, 20 minutes at 254 nm wavelength. Then, the microsomal half-life and clearance were calculated.

PAMPA-GIT permeability = assay: PAMPA-GIT permeability
From the text: (§1) The parallel artificial membrane permeability assay uses 96-well plate in a “sandwich” type system, where one plate overlaps the other (PAMPA). […] The lipid mixture that impregnates the PVDF filter has a different constitution for the permeability tests for the blood-brain barrier (Brain lipid from pig extract in dodecane) and gastro-intestinal tract (L-α soy phosphatidylcholine in dodecane). In the PAMPA BBB and TGI assays, the optical density values obtained in the reading at each selected wavelength, for each of the compounds were analyzed in comparison with the values of several controls. In the case of the BBB, these values were used to elaborate an equation and determine the permeability coefficient (Pe), using a previously elaborated spreadsheet, and, for the TGI, these values were used to determine the absorbed fraction (Fa%), both using the Excel® program.

Microsomal metabolism [2] = assay type: in vitro ADME; conditions: rat liver microsomes, without NADPH regenerating system
Plasma stability = assay type: in vitro ADME, rat
Procedure: For analysis of plasma stability, the LASSBio-1491 in a final concentration of 5 μM from stock solution of 1 mM, was added in 50 μL of rat plasma solution diluted in 250 μL with PBS (pH 7.4) and was placed in a shaker at 37 °C under vigorous stirring for 0, 30, 60, 120 and 240 minutes. After each reaction time, 500 μL of cold methanol and 500 μL of cold acetonitrile containing 5 uM of methyl 1,1’biphenyl-4-carboxylate 5 μM (internal standard) were added to the wells to stop the reaction. The solution was mixed and centrifuged at 24500 x g for 15 min (Universal centrifuge 320R Hettich®). The supernatant (1 mL) was filtrated and placed in vials to be analyzed by HPLC-PDA, Shimadzu—LC20AD, Kromasil C-18 column (4.6 mm x 250 mm, 5 μm), SPD M20A diode array detector, flow 1 mL/min, mobile phase acetonitrile: water 1:1 (v/v) for LASSBio-1491 and acetonitrile: water 60:40 (v/v) for LASSBio-1736, for 20 minutes at 254 nm wavelength.

PAMPA-BBB permeability = assay: PAMPA-BBB permeability
From the text: as §1

half-life at 5 μM (Microsomal metabolism [1]; pH 7.4, with co-factor): 2.68 h
microsomal CLint at 5 μM (Microsomal metabolism [1]; pH 7.4, with co-factor, Volume x (0,693/t1/2)): 1.07 µL/min/mg
Metabolism rate with co-factor (Microsomal metabolism [1]; with NADPH regenerating system): 25.46%
Elimination rate constant (k) (Microsomal metabolism [1]; with co-factor): 0.0043
Clapp (Microsomal metabolism [1]; with co-factor, scaled to liver and rat weight): 0.166 mL/min/kg
Fa experimental (PAMPA-GIT permeability; GIT-PAMPA, absorbed fraction): 78.8%
Papp (PAMPA-GIT permeability; PAMPA): 4.08 ×10⁻⁶ cm/s
Metabolism rate non co-factor (Microsomal metabolism [2]): 10.87%
Elimination rate constant (k) (Plasma stability; rat plasma): 0.0006
t1/2 (Plasma stability; rat plasma): 19.25 h
Metabolism rate (Plasma stability; rat plasma, 5 μM, 37 °C, up to 240 min): 15.11%
half-life at 5 μM (Plasma stability; rat, rat plasma diluted with PBS, pH 7.4, rat plasma): 28.9 h
recovery at 5 μM (Plasma stability; rat, rat plasma diluted with PBS, pH 7.4, read-out: Recovery rate): 88.5%
Papp (PAMPA-BBB permeability; PAMPA): 2.96 ×10⁻⁶ cm/s
Classification (PAMPA-BBB permeability; PAMPA-BBB): CNS+/-
Structure (SMILES): O=C(N/N=C/c1ccc([N+](=O)[O-])o1)NNC(=O)c1ccc(Cl)cc1 [LASSBio-1491]
Classification (PAMPA-GIT permeability; GIT-PAMPA): High (high intestinal permeability (70–100%))
